In this assay the target is Human recombinant DHX9 protein (Homo sapiens (Human), UniProt Q08211). The assay can be described thus: DHX9 ATPase assay (ADP-Glo). It is filed as biochemical. Conditions: for IC50: read-out: DHX9 Biochemical Inflection Point. (ADP-Glo turns the ADP formed in a reaction into a luminescent signal.)

We go through 49 molecules from patent US20240316047A1, “INHIBITORS OF RNA HELICASE DHX9 AND USES THEREOF” (ACCENT THERAPEUTICS, INC., priority 2022, published 2024).

Chain of Human recombinant DHX9 protein (Q08211 whole entry): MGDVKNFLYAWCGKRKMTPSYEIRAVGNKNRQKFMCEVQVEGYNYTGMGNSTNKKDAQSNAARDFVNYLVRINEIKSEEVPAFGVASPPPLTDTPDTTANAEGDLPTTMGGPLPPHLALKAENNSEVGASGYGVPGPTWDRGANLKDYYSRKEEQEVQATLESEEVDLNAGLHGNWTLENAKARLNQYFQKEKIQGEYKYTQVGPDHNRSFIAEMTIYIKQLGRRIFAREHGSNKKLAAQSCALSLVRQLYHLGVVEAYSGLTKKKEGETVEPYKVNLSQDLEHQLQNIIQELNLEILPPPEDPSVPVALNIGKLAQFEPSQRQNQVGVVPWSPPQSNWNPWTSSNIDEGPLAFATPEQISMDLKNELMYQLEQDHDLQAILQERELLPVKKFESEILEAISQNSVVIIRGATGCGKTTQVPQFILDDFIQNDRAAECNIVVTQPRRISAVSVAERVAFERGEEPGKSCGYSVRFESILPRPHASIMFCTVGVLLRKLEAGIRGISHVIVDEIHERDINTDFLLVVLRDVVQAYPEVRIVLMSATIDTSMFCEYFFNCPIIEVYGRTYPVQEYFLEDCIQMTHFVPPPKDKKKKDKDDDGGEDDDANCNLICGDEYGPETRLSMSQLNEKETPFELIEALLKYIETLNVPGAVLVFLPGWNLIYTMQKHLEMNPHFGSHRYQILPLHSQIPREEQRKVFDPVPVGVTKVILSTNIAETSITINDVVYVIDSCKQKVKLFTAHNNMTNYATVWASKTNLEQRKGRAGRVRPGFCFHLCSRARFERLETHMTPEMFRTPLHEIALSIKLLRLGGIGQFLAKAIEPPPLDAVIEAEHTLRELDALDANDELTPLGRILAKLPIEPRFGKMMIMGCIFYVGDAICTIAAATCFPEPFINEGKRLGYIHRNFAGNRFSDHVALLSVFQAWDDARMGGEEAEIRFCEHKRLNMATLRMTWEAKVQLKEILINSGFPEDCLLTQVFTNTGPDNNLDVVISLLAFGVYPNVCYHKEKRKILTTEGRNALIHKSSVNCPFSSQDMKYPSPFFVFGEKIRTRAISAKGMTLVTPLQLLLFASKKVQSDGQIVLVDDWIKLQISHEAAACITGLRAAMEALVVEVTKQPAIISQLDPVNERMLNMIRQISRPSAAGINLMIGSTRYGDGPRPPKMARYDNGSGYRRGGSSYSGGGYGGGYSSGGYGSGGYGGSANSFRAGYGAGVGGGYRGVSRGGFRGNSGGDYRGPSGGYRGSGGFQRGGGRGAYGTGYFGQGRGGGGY

Consider `CS(=O)(=O)Nc1cc(Br)cc(NC(=O)c2cnn(-c3cc(C#N)ccn3)c2)c1` [Example 38], for which the “DHX9 Biochemical Max Inhibition” value came to 44.7% and the IC50 was 65.5 nM.

As for `CS(=O)(=O)Nc1cc(Cl)cc(NC(=O)c2cc3cnccc3s2)c1` [Example 288], the “DHX9 Biochemical Max Inhibition” value was 58.7% and the IC50 came out at 132 nM.

`Cc1sc(C(=O)Nc2cc(Cl)cc(NS(C)(=O)=O)c2)cc1-c1ncc(N2CC(F)(F)C2)cc1OC(F)F` [Example 536]: the “DHX9 Biochemical Max Inhibition” value came out at 69.7 and the IC50 is 45.3 nM.

Consider `CS(=O)(=O)Nc1cc(Cl)cc(NC(=O)c2cnn(-c3ccccc3-c3cncc(F)c3)c2)c1` [Example 257], for which the “DHX9 Biochemical Max Inhibition” value is 66.5% and the IC50 was 207 nM.

For `CC1(C)CC(n2cc(C(=O)Nc3cc(Cl)cc(NS(C)(=O)=O)c3)cn2)CCN1` (centres unmarked) [Example 315], the “DHX9 Biochemical Max Inhibition” value was 66.9% and the IC50 is 75.3 nM.

`CC(C)n1cc(C(=O)Nc2cc(Cl)cc(NS(C)(=O)=O)c2)cc1-c1ncc(F)cn1` [Example 667]: the “DHX9 Biochemical Max Inhibition” value is reported as 67.1 and the IC50 was determined as 145 nM.

Turning to `CS(=O)(=O)Nc1cc(Cl)cc(NC(=O)c2cc(C(=O)N3CCOCC3)n(-c3ccccn3)c2)c1` [Example 731], the “DHX9 Biochemical Max Inhibition” value came to 69.1 and the IC50 was 63.5 nM.

Take `CC(C)(O)COc1cccnc1-n1cc(C(=O)Nc2cc(Cl)cc(NS(C)(=O)=O)c2)cn1` [Example 195]: the “DHX9 Biochemical Max Inhibition” value was determined as 67.1% and the IC50 was found to be 35.3 nM.

On to `CS(=O)(=O)Nc1cc(Cl)cc(NC(=O)c2cc3c(s2)CCC3Oc2cccnc2)c1` (centres unmarked) [Example 687], for which the “DHX9 Biochemical Max Inhibition” value came to 68.1 and the IC50 came to 119 nM.

Take `CS(=O)(=O)Nc1cc(Cl)cc(NC(=O)c2cc3ccc(Cl)cc3s2)c1` [Example 293]: the “DHX9 Biochemical Max Inhibition” value was 55% and the IC50 was 87.2 nM.

As to `CS(=O)(=O)Nc1cc(Cl)cc(NC(=O)c2cc(-c3ncc(F)cn3)n(C3CC3)c2)c1` [Example 712], the “DHX9 Biochemical Max Inhibition” value is on record as 74.2 and the IC50 turned out to be 56.2 nM.

With `Cc1cc(C(=O)Nc2cc(Cl)cc(NS(C)(=O)=O)c2)cn1-c1ccc(N2CCOCC2)cn1` [Example 93], the “DHX9 Biochemical Max Inhibition” value is listed as 70.6% and the IC50 stood at 1.7 nM.

For the molecule `CS(=O)(=O)Nc1cc(Cl)cc(NC(=O)c2cccc(-c3ccncc3)c2)c1` [Example 14], the “DHX9 Biochemical Max Inhibition” value stood at 59.6% and the IC50 amounted to 353 nM.

For the molecule `Cc1sc(C(=O)Nc2cc(Cl)cc(NS(C)(=O)=O)c2)cc1-c1ncc(F)cc1-c1cncc(F)c1` [Example 607], the “DHX9 Biochemical Max Inhibition” value turned out to be 75.9 and the IC50 was found to be 13.1 nM.

Consider `CS(=O)(=O)Nc1cc(Cl)cc(NC(=O)c2cnn(-c3ncccc3OCc3ncc[nH]3)c2)c1` [Example 252], for which the “DHX9 Biochemical Max Inhibition” value is 72.1% and the IC50 stood at 48.9 nM.

Turning to `Cc1sc(C(=O)Nc2cc(Cl)cc(NS(C)(=O)=O)c2)cc1-c1ncc(S(C)(=O)=O)cn1` [Example 711], the “DHX9 Biochemical Max Inhibition” value was determined as 69.3 and the IC50 stood at 32.1 nM.

For `Cc1cccnc1-n1cc(C(=O)Nc2cc(Cl)cc(NS(C)(=O)=O)c2)cn1` [Example 54], the “DHX9 Biochemical Max Inhibition” value was determined as 66.6% and the IC50 worked out at 65.6 nM.

Regarding `Cc1cc(C#N)cnc1-c1cc(C(=O)Nc2cc(Cl)cc(NS(C)(=O)=O)c2)sc1C` [Example 376], the “DHX9 Biochemical Max Inhibition” value is given as 64.1%.

As for `Cc1sc(C(=O)Nc2cc(Cl)cc(NS(C)(=O)=O)c2)cc1-c1ccc(N2CCC(F)(F)C2)cn1` [Example 485], the “DHX9 Biochemical Max Inhibition” value turned out to be 66.5 and the IC50 worked out at 19.1 nM.

With `Cn1cc(C(=O)Nc2cc(Cl)cc(NS(C)(=O)=O)c2)cc1-c1ccc(N2CC(C(F)(F)F)C2)cn1` [Example 497], the “DHX9 Biochemical Max Inhibition” value is 65.2 and the IC50 amounted to 31.6 nM.

In the case of `CS(=O)(=O)Nc1cc(Cl)cc(NC(=O)c2cnn([C@H]3CCC[C@@H](O)C3)c2)c1` (single isomer, unassigned) [Example 152b], the “DHX9 Biochemical Max Inhibition” value is listed as 69.9% and the IC50 stood at 126 nM.

Regarding `CC(C)(C)OC(=O)NC1CC2(C1)CC(n1cc(C(=O)Nc3cc(Cl)cc(NS(C)(=O)=O)c3)cn1)C2` (centres unmarked) [Example 318], the “DHX9 Biochemical Max Inhibition” value was 64.4%.

For `CCOc1cnc(-c2cc(C(=O)Nc3cc(Cl)cc(NS(C)(=O)=O)c3)cn2C)nc1` [Example 172], the “DHX9 Biochemical Max Inhibition” value amounted to 72.4% and the IC50 was 15.9 nM.

On to `Cn1cc(C(=O)Nc2cc(Cl)cc(NS(C)(=O)=O)c2)cc1-c1ncc(C(F)(F)F)cn1` [Example 571], for which the “DHX9 Biochemical Max Inhibition” value was 71.3 and the IC50 turned out to be 21.1 nM.

As for `CS(=O)(=O)Nc1cc(Cl)cc(NC(=O)c2cnn(-c3ccc(N4CCCC4=O)cn3)c2)c1` [Example 90], the “DHX9 Biochemical Max Inhibition” value was 61.5% and the IC50 came out at 24 nM.

`CNC(=O)c1sc(C(=O)Nc2cc(Cl)cc(NS(C)(=O)=O)c2)cc1-c1ncccc1OCc1ccccc1` [Example 212]: the “DHX9 Biochemical Max Inhibition” value turned out to be 72.6% and the IC50 worked out at 5.2 nM.

On to `Cc1cccc(OCc2cccc(F)c2)c1-n1cc(C(=O)Nc2cc(Cl)cc(NS(C)(=O)=O)c2)cn1` [Example 255], for which the “DHX9 Biochemical Max Inhibition” value is recorded as 75.8% and the IC50 is 72.4 nM.

`CN1CC(Oc2cnc(-c3cc(C(=O)Nc4cc(Cl)cc(NS(C)(=O)=O)c4)cn3CC(F)F)nc2)C1` [Example 679]: the “DHX9 Biochemical Max Inhibition” value amounted to 70.2 and the IC50 amounted to 12.5 nM.

In the case of `CS(=O)(=O)Nc1cc(Br)cc(NC(=O)c2cnn(-c3ccc(C#N)cn3)c2)c1` [Example 41], the “DHX9 Biochemical Max Inhibition” value was 40.3% and the IC50 worked out at 47.4 nM.

On to `Cc1sc(C(=O)Nc2cc(Cl)cc(NS(C)(=O)=O)c2)cc1-c1ncc(P(C)(C)=O)cn1` [Example 648], for which the “DHX9 Biochemical Max Inhibition” value is given as 69.1 and the IC50 amounted to 6.9 nM.

With `Cc1cc(C(=O)Nc2cc(Cl)cc(NS(C)(=O)=O)c2)cn1-c1ncc(N2CCCC2=O)cn1` [Example 401], the “DHX9 Biochemical Max Inhibition” value was 70.3 and the IC50 turned out to be 10.6 nM.

In the case of `CS(=O)(=O)Nc1cc(Cl)cc(NC(=O)c2cc(-c3ncccc3F)n(CC(F)(F)F)c2)c1` [Example 564], the “DHX9 Biochemical Max Inhibition” value amounted to 77.8 and the IC50 amounted to 70.1 nM.

Regarding `Cn1nc(C(=O)Nc2cc(Cl)cc(NS(C)(=O)=O)c2)cc1-c1ccccc1OCc1ccccc1` [Example 138, 5-(2-(benzyloxy)phenyl)-N-(3-chloro-5-(methylsulfonamido)phenyl)-1-methyl-1H-pyrazole-3-carboxamide], the “DHX9 Biochemical Max Inhibition” value is given as 42.6% and the IC50 came out at 13500 nM.

For `CS(=O)(=O)Nc1cc(Cl)cc(NC(=O)c2cc(-c3ncc(F)cc3OCc3cncnc3)n(CC(F)(F)F)c2)c1` [Example 735], the “DHX9 Biochemical Max Inhibition” value turned out to be 80.1 and the IC50 came out at 7 nM.

For the molecule `Cn1cc(C(=O)Nc2cc(Cl)cc(NS(C)(=O)=O)c2)cc1-c1ccccc1` [Example 109], the “DHX9 Biochemical Max Inhibition” value is recorded as 57.2% and the IC50 stood at 17.6 nM.

Take `CS(=O)(=O)Nc1cc(Br)cc(NC(=O)c2cnn(-c3ccc(N4CCOCC4)cn3)c2)c1` [Example 55]: the “DHX9 Biochemical Max Inhibition” value was 48.6% and the IC50 was 9.9 nM.

For `Cc1ccc(-n2cc(C(=O)Nc3cc(Br)cc(NS(C)(=O)=O)c3)cn2)nc1` [Example 42], the “DHX9 Biochemical Max Inhibition” value is recorded as 48.7% and the IC50 came out at 18.7 nM.

Consider `Cc1cc(C(=O)Nc2cc(Cl)cc(NS(C)(=O)=O)c2)cn1-c1ccc(Cl)cn1` [Example 389], for which the “DHX9 Biochemical Max Inhibition” value was 82.3% and the IC50 came to 19.5 nM.

Turning to `Cn1cc(C(=O)Nc2cc(Cl)cc(NS(C)(=O)=O)c2)cc1-c1ccc(C(F)(F)F)cn1` [Example 569], the “DHX9 Biochemical Max Inhibition” value is recorded as 75.9 and the IC50 is 55.6 nM.

Consider `CS(=O)(=O)Nc1cc(Br)cc(NC(=O)c2cc(-c3ncccc3OCc3ccccc3)cs2)c1` [Example 32], for which the “DHX9 Biochemical Max Inhibition” value was found to be 56.3% and the IC50 was determined as 38.3 nM.

For the molecule `CS(=O)(=O)Nc1cc(Cl)cc(NC(=O)c2cc(-c3ncccc3Cc3ncccn3)cs2)c1` [Example 384], the “DHX9 Biochemical Max Inhibition” value worked out at 75.5% and the IC50 is 39 nM.

Consider `CS(=O)(=O)Nc1cc(Cl)cc(NC(=O)c2cc(-n3cc(F)cn3)cs2)c1` [Example 440], for which the “DHX9 Biochemical Max Inhibition” value turned out to be 68.5 and the IC50 came out at 37.6 nM.

On to `CC(C)Oc1cnc(-c2csc(C(=O)Nc3cc(Cl)cc(NS(C)(=O)=O)c3)c2)c(F)c1` [Example 458], for which the “DHX9 Biochemical Max Inhibition” value worked out at 60.2.

On to `CC(=O)N1CCN(c2ccnc(-n3cc(C(=O)Nc4cc(Cl)cc(NS(C)(=O)=O)c4)cn3)c2)CC1` [Example 148, 1-(4-(4-acetylpiperazin-1-yl)pyridin-2-yl)-N-(3-chloro-5-(methylsulfonamido)phenyl)-1H-pyrazole-4-carboxamide], for which the “DHX9 Biochemical Max Inhibition” value came out at 63.3% and the IC50 came out at 18.5 nM.

For `Cc1cc(C(=O)Nc2cc(Cl)cc(NS(C)(=O)=O)c2)cn1-c1ccc(N2CC3COCC3C2)cn1` (centres unmarked) [Example 405], the “DHX9 Biochemical Max Inhibition” value is reported as 93.9 and the IC50 was 5.2 nM.

For the molecule `CS(=O)(=O)Nc1cc(Cl)cc(NC(=O)c2cnn(-c3ncccc3COc3cncc(F)c3)c2)c1` [Example 262], the “DHX9 Biochemical Max Inhibition” value came out at 66.5% and the IC50 stood at 120 nM.

Regarding `Cn1cc(C(=O)Nc2cc(Cl)cc(NS(C)(=O)=O)c2)cc1-c1ncncc1OCc1cc(F)cc(F)c1` [Example 627], the “DHX9 Biochemical Max Inhibition” value was 75.8 and the IC50 was 29.4 nM.

Turning to `Cn1cc(C(=O)Nc2cc(Cl)cc(NS(C)(=O)=O)c2)cc1-c1ncc(OC2CN(C(=O)C3CC3)C2)cc1F` [Example 697], the “DHX9 Biochemical Max Inhibition” value is given as 59.5 and the IC50 turned out to be 40.9 nM.

Regarding `CS(=O)(=O)Nc1cc(Cl)cc(NC(=O)c2cc3ccc(F)cc3s2)c1` [Example 294], the “DHX9 Biochemical Max Inhibition” value is recorded as 59% and the IC50 was determined as 1610 nM.
